In patent US20120177601A1, “TREATMENT OF HEPATITIS C VIRUS INFECTIONS” (THE USA AS REPRESENTED BY THE SECRETARY OF THE DEPARTMENT …, priority 2009, published 2012):
Where “and” joins values, the source holds several entries; their conditions need not be identical. Equal values may be shown once. Where a name gives a salt, the structure may show the parent alone. Read-outs that look alike come from different tables or passages of the source.

Assays:
[1] = test system: Huh5-15NS replicon (sub-genomic HCV RNA); assay: HCV replication in nonstructural (NS) replicon cells, real-time RT-PCR (ΔCT); format: cell-based; conditions: for Relative [HCV] [ΔCT]: overnight, Huh5-15NS, control vehicle = 1.0; for concentration showing significant antiviral activity / required to suppress HCV replication: NS replicon, 48 hr
Excerpt: (§1) Cell lines and cell culture. The human hepatoma cell line (Huh5-15) with replicating sub-genomic HCV RNA (Lohmann et al., 1999) was a kind gift of Dr. Volker Lohmann (Institute for Virology, Johannes-Gutenberg University, Mainz, Germany), and cultivated as described (Zhu et al., 2008). Huh7.5 cells harboring full length (Huh7.5FL) Conl replicons (Blight et al., 2002) were a kind gift of Dr. Charles Rice (Rockefeller University, New York, N.Y.). These cells were passed as recommended by their laboratory of origin (Blight et al., 2002). An infectious clone of HCV, J6/JFH, was inoculated into Huh7.5 cells and the cultures passed as previously described (Lindenbach et al., 2005). Cells were incubated with BV, BR, or FeCl2 for 24-48 h in DMEM containing 5% FBS.
(§2) Quantitative Real-time RT-PCR. Total RNA was extracted from cells using Trizol reagent (Invitrogen, Carlsbad, Calif.), treated with Turbo RNase free DNase (Ambion, TX), and processed as described (Zhu et al., 2008). To assess replication, the primers and probe designed by Takeuchi et al. (1999) targeting sequences located in 5′UTR (nt130-290) were employed as described for each replicon line (Blight et al., 2002; Lohmann et al., 2003). Real-time RT-PCR was performed using Taq DNA polymerase with the TaqMan Universal PCR Master Mix Protocol (Perkin Elmer Applied Biosystems, Foster City, Calif.). Quantitation was performed using the comparative cycle threshold (ΔCT) method as described previously (Abdalla et al., 2004).

[2] = test system: Huh7.5FL replicon (full length Con1); assay: HCV replication in full-length (FL) replicon cells, real-time RT-PCR (ΔCT); format: cell-based; conditions: for Relative [HCV] [ΔCT]: overnight, Huh7.5FL, control vehicle = 1.0; for concentration showing significant antiviral activity / required to suppress HCV replication: FL replicon, 48 hr
Excerpt: as §1, §2

[3] = target: T1, HCV NS3/4A recombinant protease (UniProt O92972); format: biochemical
T1 construct: other: recombinant protease, 591 nm/622 nm FRET peptide, regression analysis; other: recombinant NS3/4A, Lineweaver-Burk; other: BV versus BR; effect o; fused on or other part: By knowledge of the vendor's product, the NS4A cofactor segment of the same polyprotein is fused to the N-terminus of the NS3 protease domain
T1 sequence (O92972 1027-1657): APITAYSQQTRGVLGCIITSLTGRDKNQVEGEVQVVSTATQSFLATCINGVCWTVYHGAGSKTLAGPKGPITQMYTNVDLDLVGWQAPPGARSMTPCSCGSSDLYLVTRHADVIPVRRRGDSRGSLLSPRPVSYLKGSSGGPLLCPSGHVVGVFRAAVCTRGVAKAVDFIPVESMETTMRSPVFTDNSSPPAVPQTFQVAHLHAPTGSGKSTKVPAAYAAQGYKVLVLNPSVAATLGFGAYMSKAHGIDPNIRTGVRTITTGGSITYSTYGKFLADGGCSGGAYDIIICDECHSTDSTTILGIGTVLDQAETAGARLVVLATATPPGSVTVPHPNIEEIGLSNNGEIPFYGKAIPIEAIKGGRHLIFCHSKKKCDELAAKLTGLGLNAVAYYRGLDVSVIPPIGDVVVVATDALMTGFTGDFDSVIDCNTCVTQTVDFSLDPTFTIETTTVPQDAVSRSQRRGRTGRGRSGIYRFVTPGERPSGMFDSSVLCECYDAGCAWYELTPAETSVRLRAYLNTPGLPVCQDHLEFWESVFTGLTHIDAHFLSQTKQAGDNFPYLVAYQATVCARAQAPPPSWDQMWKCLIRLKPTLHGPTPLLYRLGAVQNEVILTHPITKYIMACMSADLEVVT
Method: In vitro assay of HCV NS3/4A recombinant protease. Protease activity was determined fluorometrically with the SensoLyte 620 HCV Protease Assay (AnaSpec, Fremont, Calif.) using a wide wavelength excitation/emission (591 nm/622 nm respectively) fluorescence energy transfer peptide according to the manufacturer's instructions. Control incubations with BV or metabolite only were performed to eliminate or correct for autofluorescence or quenching. A competitive inhibitor of the NS3/4A protease, AnaSpec #25346, was used as positive control.

[4] = test system: J6/JFH infectious HCV in Huh7.5 cells; assay: J6/JFH HCV infection of Huh7.5 cells (immunostaining, HCV RNA); format: cell-based; conditions: BV 20-200 μM, 72 hr; HCV polyvalent sera immunoreactivity and HCV RNA
Excerpt: as §1, with “Cells were incubated with BV, BR, or FeCl2 for 24-48 h in DMEM containing 5% FBS.” left out
Quantitative Real-time RT-PCR. Total RNA was extracted from cells using Trizol reagent (Invitrogen, Carlsbad, Calif.), treated with Turbo RNase free DNase (Ambion, TX), and processed as described (Zhu et al., 2008). […] Quantitation was performed using the comparative cycle threshold (ΔCT) method as described previously (Abdalla et al., 2004).
Immunocytochemical staining. […] Antibody binding was evaluated following labeling with anti-human secondary antibody-alkaline phosphatase conjugate and results recorded by photomicroscopy.

[5] = test system: NS5A and core protein in NS and FL replicons; assay: Western blot / immunoprecipitation of HCV proteins in replicons; format: cell-based; conditions: for NS5A protein level (WB): both replicon lines; for NS5A protein level (WB) / core protein level (WB): 24 hr, BV 20 μM, BR 200 μM, FeCl2 100 mM as printed
Method: Western blot analysis. Western blots (WB) were performed as previously described using enhanced chemiluminescence for signal detection (ECLTM, Amersham) (Abdalla et al., 2005). Signal intensities were quantified using Image J software (NIH).
Immunoprecipitation of NS5A. Log-phase replicons were treated with various concentrations of BV for 48 hr, washed, lysed in cell lysis buffer (Cell Signaling Technology, Beverly, Mass.) and clarified by cold centrifugation (14,000×g for 10 min). An aliquot of supernatant containing 100 μg protein was incubated with 1 μg of HCV NS5A monoclonal antibody (Meridian Life Science, Saco, Me.) and 20 μl of rProtein G Agarose (Invitrogen, CA) overnight at 4° C. The agarose was collected by 3000×g spin, washed three times with ice-cold PBS, then dissolved in 40 μL 2× Laemmli sample buffer (Bio-Rad, CA) and assayed by WB.

[6] = test system: HCV replication in FL and NS replicons; assay: BV with α-interferon, HCV replication in replicons; format: cell-based; conditions: 50 or 100 μM BV overnight with α-interferon
Method: FL (FIG. 7A) or NS (FIG. 7B) replicons were treated with indicated amounts of α-interferon alone or in the presence of 50 or 100 μM BV overnight. HCV replication was determined by real-time RT-PCR using the comparative cycle threshold (ΔCT) method. (*) p<0.01 vs. control; (#) p<0.005 vs. control.
as §2

[7] = target: T2, endogenous NS3/4A protease from replicons (Hepatitis C virus genotype 1b, UniProt Q9WMX2); assay: Endogenous NS3/4A protease assay with replicon lysates (FRET); format: biochemical, HCV; conditions: protease freshly prepared from replicons
T2 construct: For assays employing endogenous NS3/4A protease; expressed in transfected cells; host or cells: HCV replicon cells (Huh5-15 sub-genomic or Huh7.5FL Con1), Triton X-100 lysate
T2 sequence (Q9WMX2 1658-1711): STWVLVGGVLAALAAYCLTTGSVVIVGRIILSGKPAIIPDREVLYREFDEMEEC
T2 sequence (Q9WMX2 1027-1657): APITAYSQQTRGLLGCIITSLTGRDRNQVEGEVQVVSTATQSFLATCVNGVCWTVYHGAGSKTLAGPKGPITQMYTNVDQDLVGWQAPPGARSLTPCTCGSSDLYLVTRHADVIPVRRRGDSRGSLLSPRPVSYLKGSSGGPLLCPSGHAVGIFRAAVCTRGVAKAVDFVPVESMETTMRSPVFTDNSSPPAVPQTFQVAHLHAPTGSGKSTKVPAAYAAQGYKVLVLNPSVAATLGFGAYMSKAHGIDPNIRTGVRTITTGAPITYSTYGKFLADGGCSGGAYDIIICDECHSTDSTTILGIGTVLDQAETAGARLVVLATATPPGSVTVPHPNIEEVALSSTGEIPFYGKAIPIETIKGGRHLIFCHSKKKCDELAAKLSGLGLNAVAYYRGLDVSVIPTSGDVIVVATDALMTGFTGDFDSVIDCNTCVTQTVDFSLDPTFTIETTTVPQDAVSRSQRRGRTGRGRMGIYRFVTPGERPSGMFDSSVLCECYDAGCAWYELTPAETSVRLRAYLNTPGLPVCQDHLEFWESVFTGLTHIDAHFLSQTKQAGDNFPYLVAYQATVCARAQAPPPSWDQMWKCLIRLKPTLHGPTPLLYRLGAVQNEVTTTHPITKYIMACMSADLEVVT
Method: For assays employing endogenous NS3/4A protease, the high-throughput FRET assay was used with modifications (Yu et al., 20009). Replicon cells at 90% confluence were lysed in ice-cold 1.25% Triton X-100 lysis buffer (Yu et al., 20009). Serial dilutions of lysates were added in triplicate to black 96-well plates, together with designated concentrations of tetrapyrrole. The HiLyte Flur™ TR/QXL™ 610 substrate solution (AnaSpec) was prepared according to the manufacturer's instructions. The plate and substrate were incubated at 37° C. for 15 min, and then 50 μl substrate solution was added to each well. The plates were incubated at room temperature for 30 min, avoiding direct light. The fluorescence intensity was then measured as above for recombinant enzyme assays using FLUOstar Optima (BMG Lab Tech, Cary, N.C.). To ensure specificity for the NS3/4A protease, lysates of parental Huh7 and Huh7.5 cells were run in every assay and the results subtracted as background fluorescence.

[8] = test system: HCV RNA in NS and FL replicons after BVR siRNA; format: cell-based; conditions: BV 20 μM or BR 100 μM overnight, both replicon lines, vs scrambled RNA
Method: as §2
Biliverdin reductase (BVR) knockdown. Biliverdin reductase (BVR) siRNA and control (scrambled) siRNA were purchased from Santa Cruz Biotechnology (sc-44650 and sc-37007). BVR knockdown was performed as described previously (Ryter et al., 2007). Efficiency of the knockdown was monitored by semiquantitative densitometry of BVR WB.

[9] = in vivo; cited from earlier work
vascular injury = conditions: rats, 50 mg/kg; cited from earlier work
[10] = test system: replicon or parental cell lines (Huh7.5); assay: Cytotoxicity, MTT assay; format: cell-based, human; conditions: 20-200 μM BV
Method: Cytotoxicity assay. Cytotoxicity was assessed using the MTT assay as detailed previously (Wen et al., 2008). Cells (1×10^4 per well) were seeded in 96-well culture plates and allowed to attach overnight. […]

HIV-1 protease = HIV-1 protease (Human immunodeficiency virus type 1 group M subtype B, UniProt P04585); conditions: McPhee et al. 1996; cited from earlier work
LPS induced septic shock = conditions: rats, 35 mg/kg; cited from earlier work
[11] = unconjugated form; cited from earlier work
[12] = recombinant protease, 591 nm/622 nm FRET peptide, regression analysis; read-out: IC50, inhibition of HCV NS3/4A protease

hemin [Heme]
Relative [HCV] [ΔCT] ([1]; Heme 5 uM, mean of four): 0.27 | Relative [HCV] [ΔCT] ([1]; Heme 10 uM): 0.09 | Relative [HCV] [ΔCT] ([1]; Heme 20 uM): 0.03 | lowest level with apparent antiviral effect ([1]; hemin, replicons): 5 | Relative [HCV] [ΔCT] ([2]; Heme 5 uM): 0.22 | Relative [HCV] [ΔCT] ([2]; Heme 10 uM): 0.08 | Relative [HCV] [ΔCT] ([2]; Heme 20 uM): 0.04 | lowest level with apparent antiviral effect ([2]; hemin, replicons): 5

C=CC1=C(C)/C(=C/C2=NC(=C\c3[nH]c(/C=C4/NC(=O)C(C)=C4C=C)c(C)c3CCC(=O)OC)/C(CCC(=O)OC)=C2C)NC1=O [Biliverdin dimethylester, biliverdin dimethyl ester]
IC50 [3, 12]: > 300 µM

C=CC1=C(C)/C(=C/C2=NC(=C\c3[nH]c(/C=C4\NC(=O)C(C)=C4C=C)c(C)c3CCC(=O)O)/C(CCC(=O)O)=C2C)NC1=O [Biliverdin, biliverdin-IX-α hydrochloride]
Huh7.5 cell infection with J6/JFH [4]: markedly decreased | NS5A protein level (WB) [5]: decreased NS5A | core protein level (WB) ([5]; full-length replicons): reduced | NS5A by WB or immunoprecipitation, concentration series ([5]; full-length replicons, various concentrations of BV): dose-dependently decreased NS5A | effect of BV on α-interferon antiviral activity [6]: clear additive effect | difference in IC50 of BV and BR for the NS3/4a protease ([3]; BV versus BR): at least 10 fold | mode of inhibition of NS3/4A protease ([3]; Lineweaver-Burk and secondary plots): both noncompetitive and competitive inhibitor activity | effect of BV together with #25346 on protease activity ([3]; both BV and #25346 present): additive effect | IC50 ([3]; read-out: IC50, inhibition of HCV NS3/4A protease; recombinant protease, 591 nm/622 nm FRET peptide, regression analysis; listed as BV, hydrochloride): 9.3 µM and 9 µM | Ki ([3]; read-out: Ki (competitive), secondary plot Km/V vs [BV]; recombinant NS3/4A, Lineweaver-Burk): 0.6 µM | Ki ([3]; read-out: Ki′ (noncompetitive), secondary plot 1/Vap vs [BV]; recombinant NS3/4A, Lineweaver-Burk): 1.1 µM | inhibition of endogenous protease compared with recombinant enzyme [7]: slightly higher concentrations | concentration showing significant antiviral activity / required to suppress HCV replication [1]: 20 µM | effect of BVR knockdown on antiviral activity (HCV RNA) [8]: significantly enhanced | concentration showing significant antiviral activity / required to suppress HCV replication [2]: 20 µM | oral bioavailability [9]: relatively poor oral bioavailability | vascular injury (vascular injury): prevented vascular injury | toxicity (MTT) with FBS ([10]; inclusion of 3-5% FBS, data not shown): toxicity was eliminated | toxicity (MTT) ([10]; serum-free culture medium, 24-48 hr): 15% | Ki (HIV-1 protease): 1 µM | LPS induced septic shock (LPS induced septic shock): protected rats against LPS induced septic shock

CCC1=C(C)/C(=C/c2[nH]c(Cc3[nH]c(/C=C4\NC(=O)C(C)=C4CC)c(C)c3CCC(=O)O)c(CCC(=O)O)c2C)NC1=O [Mesobilirubin, mesobilirubin]
IC50 [3, 12]: > 300 µM

Bilirubin mixed isomers [Bilirubin (mixed isomers)]
IC50 [3, 12]: > 300 µM | concentration showing significant antiviral activity / required to suppress HCV replication [1]: 200 µM | concentration showing significant antiviral activity / required to suppress HCV replication [2]: 200 µM

C=CC1=C(C)/C(=C/c2[nH]c(Cc3[nH]c(/C=C4\NC(=O)C(C)=C4C=C)c(C)c3CCC(=O)O)c(CCC(=O)O)c2C)NC1=O [Bilirubin IXα, bilirubin-IX-α]
IC50 [3, 12]: > 300 µM | concentration showing significant antiviral activity / required to suppress HCV replication [1]: 200 µM | concentration showing significant antiviral activity / required to suppress HCV replication [2]: 200 µM

[Cl][Fe][Cl] [FeCl2, reference compound]
NS5A protein level (WB) [5]: decreased | core protein level (WB) ([5]; full-length replicons): decreased | HCV RNA ([2]; FeCl2 100 mM as printed, replicon line not specified, not shown): diminishing HCV RNA

C=CC1=C(C)/C(=C/c2[nH]c(Cc3[nH]c(/C=C4\NC(=O)C(C)=C4C=C)c(C)c3CCC(=O)O)c(CCC(=O)O)c2C)NC1=O [BR, Bilirubin]
IC50 ([3]; read-out: IC50, inhibition of HCV NS3/4A protease; recombinant protease, 591 nm/622 nm FRET peptide, regression analysis): > 300 µM | effect of BVR knockdown on antiviral activity (HCV RNA) [8]: no significant effect | solubility in water [11]: not soluble in water | oral bioavailability [9]: relatively poor oral bioavailability | Ki (HIV-1 protease): 0.8 µM
